Structures can show the parent of a compound that is named as a salt.
Experiments:
Assay type in all cases: cell-based, human
[1] = system: cancer cell lines displaying reduced Lamin A/C expression; experiment: Nuclear morphology of cancer cell lines with reduced Lamin A/C expression (DAPI)
Source text: FIG. 2: Small molecule Compound 2 rescues nuclear shape defects in various Lamin A/C depleted cells. A) and B) Nuclear shape visualization by DAPI staining of HeLa (A) or RPE-1 (B) cells depleted for Lamin A/C (siLMNA) and treated with various KATi. Scale bars: 50 μm. C) and D) Cell Profiler quantification of nuclear circularity of HeLa (C) or RPE-1 (D) cells from DAPI staining as shown in A) and B) (means of three independent experiments with n>252±s.d). E) Cell cycle profile analysed by flow cytometry. PI: propidium iodide. F) Analysis of Lamin A/C expression levels in indicated cancer cell lines. Bottom panel: Image J quantification of Lamin A/C expression in cancer cells relative to normal RPE-1 cells. G) Representative pictures of DAPI staining showing nuclear shape improvement in low Lamin A/C expressing cancer cells after treatment with Compound 2. Scale bars: 20 μm.
(§1) U2OS and SaOS-2 osteosarcoma cells, HeLa cervical cancer cells, A431 melanoma cells, NCI-SNU5 gastric cancer cells, MRC-5 lung fibroblast cells and Werner syndrome patient-derived SV40 fibroblast cells were grown in Dulbecco's modified Eagle medium (DMEM, Sigma-Aldrich) supplemented with 10% fetal bovine serum (BioSera), 2 mM L-glutamine, 100 U per ml penicillin, 100 μg ml^−1 streptomycin. […] Cells were analysed 48 to 72 hours after transfection.

[2] = system: primary MRC5 fibroblasts aged in culture; experiment: Misshapen nuclei in aged MRC5 cells; conditions: population doubling 44
Source text: FIG. 10: Remodelin rescues nuclear shape of aged MRC5 cells but not WS cells in a dose dependent manner. A) Misshapen nuclei observed by DAPI staining in MRC5 aged cells in culture, at population doubling 44 (PD44) were rescued by Remodelin. B) Quantification of misshapen nuclei after increasing concentrations of Remodelin (mean of three independent experiments±s.e.m.). C) DAPI staining of non-laminopathic Werner Syndrome cells (WS) showing no nuclear shape improvement upon Remodelin treatment. D) Cell Profiler quantification of misshapen nuclei (mean of three independent experiments±s.d. n>273). Scale bars: 50 μm.
as §1, with “streptomycin. Normal skin primary fibroblasts GM03440 and Hutchinson Gilford Progeria Syndrome (HGPS) skin primary fibroblasts AG11498 and AG06297 were purchased from Coriell Cell Repositories and used between passage number 9-12 and 20-23 respectively. Cells were grown in DMEM supplemented as above.” for “streptomycin.”

HGPS cells = experiment: EdU incorporation by flow cytometry in HGPS cells; conditions: 2 hours EdU
Procedure: 10 μM EdU was incubated for 2 hours when indicated. Cells were fixed in 4% paraformaldehyde (Sigma-Aldrich). EdU was fluorescently labeled using the Click-iT® EdU Flow Cytometry Assay Kit (Life Sciences). DNA was stained with […] propidium iodide (Sigma-Aldrich) in phosphate buffer solution (PBS) containing 0.1% Triton-X-100 and 0.5 mg ml^−1 DNase free RNase A (Sigma-Aldrich). Samples were processed on a FACSCalibur flow cytometer equipped with CellQuest software (Becton Dickinson). Results were analysed using FlowJo software (TreeStar).

siLMNA cells = experiment: Golgi apparatus integrity (anti-Giantin) in siLMNA cells
Source text: FIG. 13: Inhibiting NAT10 acetyltransferase activity modifies microtubule organisation to rescue nuclear shape defects. A) Microtubule network visualisation by inverted IF pictures of α-Tubulin. B) Nuclear shape visualisation after treating cells with microtubule or actin cytoskeleton disrupting agents. C) Visualisation of nuclear shape (DAPI) and Golgi (anti-Giantin) integrity in siLMNA cells. D) Fractionation of polymerised (P) and soluble (S) tubulin upon Remodelin or nocodazole (Nocod.) treatment. […] Right: quantification of cells with the indicated patterns (means of three independent experiments with n>103±s.e.m.). F) Laminopathic cells have enlarged, misshapen nuclei associated with disorganized chromatin structure. Upon Remodelin treatment, NAT10 acetyltransferase activity is inhibited, leading to disruption of microtubule anchorage at the centrosome and release of microtubule forces on the nuclear envelope. This release of mechanical stress on the nucleus contributes to nuclear shape rescue and global improvement of cellular fitness and chromatin organization. Scale bars: 20 μm.
Cells were washed with PBS and fixed for 20 minutes with 2% PFA in PBS. Cells were permeabilised for 5 minutes with PBS/0.2% Triton X-100, and blocked with PBS/0.2% Tween 20 (PBS-T) containing 5% BSA. […]

| SMILES | nuclear morphology of cancer cell lines [1] | misshapen nuclei of aged MRC5 cells [2] | DNA replication (EdU incorporation) (HGPS cells) | Golgi apparatus integrity (siLMNA cells) |
| --- | --- | --- | --- | --- |
| Clc1ccc(-c2csc(NN=C3CCCC3)n2)cc1 [Compound 2, 4-(4-Chlorophenyl)-2-(2-cyclopentylidenehydrazinyl)thiazole Hydrochloride Salt] | improved the nuclear morphology of several cancer cell lines |  |  |  |
| N#Cc1ccc(-c2csc(NN=C3CCCC3)n2)cc1 [Compound 1, 4-(4-Cyanophenyl)-2-(2-cyclopentylidenehydrazinyl)thiazole] |  | also had this effect on primary MRC5 fibroblasts aged in culture | improved DNA replication | did not affect Golgi apparatus integrity |
